Laboratory results from patent US6358948B1 (American Home Products Corporation, priority 1999, dated 2002).
Values joined by “and” are separate entries in the source; they are usually repeats but may differ in a detail not shown here. Identical values can stand only once. Like-named read-outs stand apart in the source and are kept apart here.

How the values were obtained:
human PR = biological target: T1, human PR (Homo sapiens, UniProt P06401); assay: PRE-luciferase assay in CV-1 cells; assay type: cell-based; conditions: read-out: hPR CV-1 IC50
T1 construct: expressed in transfected cells; host or cells: CV-1 cells (electroporated with pLEM-hPR-B and pGL3-2xPRE-luciferase)
T1 sequence (P06401 1-933): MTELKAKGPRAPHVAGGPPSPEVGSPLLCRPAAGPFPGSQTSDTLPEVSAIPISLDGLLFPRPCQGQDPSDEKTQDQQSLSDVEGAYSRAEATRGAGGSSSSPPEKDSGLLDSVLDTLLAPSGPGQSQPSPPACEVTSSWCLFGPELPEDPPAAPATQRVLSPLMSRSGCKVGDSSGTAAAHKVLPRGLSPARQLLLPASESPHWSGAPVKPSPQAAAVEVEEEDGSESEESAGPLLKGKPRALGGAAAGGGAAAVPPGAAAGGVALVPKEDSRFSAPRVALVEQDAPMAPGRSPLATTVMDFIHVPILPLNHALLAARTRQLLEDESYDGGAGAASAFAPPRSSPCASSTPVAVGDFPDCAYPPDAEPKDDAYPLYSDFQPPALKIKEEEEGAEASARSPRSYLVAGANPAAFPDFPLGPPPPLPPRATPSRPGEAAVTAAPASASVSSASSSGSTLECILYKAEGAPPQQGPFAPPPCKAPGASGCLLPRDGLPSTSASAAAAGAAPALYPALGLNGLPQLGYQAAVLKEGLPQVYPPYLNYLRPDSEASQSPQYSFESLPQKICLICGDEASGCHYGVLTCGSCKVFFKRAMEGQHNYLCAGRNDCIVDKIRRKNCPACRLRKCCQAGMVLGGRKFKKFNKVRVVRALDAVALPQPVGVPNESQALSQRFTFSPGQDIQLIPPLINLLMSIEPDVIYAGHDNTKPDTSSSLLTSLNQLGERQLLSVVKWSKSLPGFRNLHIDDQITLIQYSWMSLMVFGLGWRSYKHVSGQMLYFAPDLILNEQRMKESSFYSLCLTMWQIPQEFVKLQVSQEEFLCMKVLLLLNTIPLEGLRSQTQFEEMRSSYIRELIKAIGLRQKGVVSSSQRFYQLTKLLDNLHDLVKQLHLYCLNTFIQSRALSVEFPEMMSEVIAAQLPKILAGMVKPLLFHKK

[1] = test system: rat uterine decidualization; assay: Rat decidualization assay; assay type: in vivo; conditions: for EC50: s.c., half-maximal increase in decidual response (uterine wet weight), ovariectomized rats, individual studies

SMILES | melting point | also measured
CC1OC(C)(C)Nc2ccc(-c3cccc([N+](=O)[O-])c3)cc21 (stereo not drawn) [Compound 3, 6-(3-Nitro-phenyl)-2,2,4,-trimethyl-1,4-dihydro-2H-benzo[d][1,3]oxazine] |  | IC50 (human PR; CV-1 cells co-transfected with human PR and PRE-luciferase, decrease in 3 nM progesterone induced PRE-luciferase activity): 1680 nM
CC1(C)CC(=S)Nc2ccc(-c3cccc(Cl)c3)cc21 [Example 43, 6-(3-Chlorophenyl)-4,4-dimethyl-3,4dihydroquinoline-2(1H)-thione] | 197 to 198 °C | 
C#C[C@]1(O)CC[C@H]2[C@@H]3CCC4=CC(=O)CC[C@@H]4[C@H]3CC[C@@]21CC [Levonorgestrel] |  | EC50 [1]: 0.08 mg/kg and 0.12 mg/kg and 0.09 mg/kg (2×)
C#C[C@]1(O)CC[C@H]2[C@@H]3CCC4=CC(=O)CC[C@@H]4[C@H]3C(=C)C[C@@]21CC [3-Ketodesogestrel] |  | EC50 [1]: 0.10 mg/kg and 0.06 mg/kg and 0.11 mg/kg
CC1OC(C)(C)c2cc(-c3ccc(C#N)n3C(=O)OC(C)(C)C)ccc2N1C(=O)OCC1c2ccccc2-c2ccccc21 (stereo not drawn) [Example 19, 9H-Fluoren-9-ylmethyl-6-[1-(tert-butoxycarbonyl)-5-cyano-1H-pyrrol-2-yl]-2,4,4-trimethyl-2H-3,1-benzoxazine-1(4H)-carboxylate] | 135 to 136 °C | 
CC1(C)CC(=S)Nc2ccc(-c3cc(F)cc(C#N)c3)cc21 [Example 46, 3-(4,4-Dimethyl-2-thioxo-1,2,3,4-tetrahydroquinolin-6-yl)-5-fluorobenzonitrile] | 240 to 242 °C (dec.) | 
CN1C(=O)Nc2ccc(-c3cccc(Cl)c3)cc2C1(C)C1CC1 (stereo not drawn) [Example 10, 6-(3-Chlorophenyl)-4-cyclopropyl-3,4-dimethyl-3,4-dihydro-1H-quinazolin-2-one] | 193 to 194 °C | 
CC1(C2CC2)NC(=O)Nc2ccc(-c3cccc(Cl)c3)cc21 (stereo not drawn) [Example 9, 6-(3-Chlorophenyl)-4-cyclopropyl-4-methyl-3,4-dihydro-1H-quinazolin-2-one] | 125 to 127 °C | 
CC1(C)CC(=O)Nc2ccc(-c3cccc(F)c3)cc21 [Example 40, 6-(3-Fluorophenyl)-4,4-dimethyl-3,4-dihydroquinolin-2(1H)one] | 190 to 192 °C | 
CC1(C)CC(=O)Nc2ccc(-c3cccc(Cl)c3)cc21 [Example 11, 6-(3-Chloro-phenyl)-4,4-dimethyl-3,4-dihydro-1H-quinolin-2-one] | 211 to 215 °C | 
CC#C[C@]1(O)CC[C@H]2[C@@H]3CCC4=CC(=O)CCC4=C3[C@@H](c3ccc(N(C)C)cc3)C[C@@]21C [RU 486] |  | IC50 ([1]; p.o., half-maximal decrease in EC50 progesterone induced decidual response, rats): 0.21 mg/kg and 0.14 mg/kg
CC1OC(C)(C)c2cc(-c3ccc(C#N)n3C)ccc2N1C(=O)OCC1c2ccccc2-c2ccccc21 (stereo not drawn) [Example 21, 9H-Fluoren-9-ylmethyl 6-(5-cyano-1-methyl-1H-pyrrol-2-yl)-2,4,4-trimethyl-2H-3,1-benzoxazine-1(4H)-carboxylate] | 63 to 64 °C | 
CC1(C)OC(C)(C(F)(F)F)Nc2ccc(-c3cccc(Cl)c3)cc21 (stereo not drawn) [Compound 2, 6-(3-Chloro-phenyl)-2,4,4-trimethyl-2-trifluoromethyl-1,4-dihydro-2H-benzo[d][1,3]oxazine] |  | IC50 (human PR): 50 nM
CC1(C)CC(=S)Nc2ccc(-c3cccc(F)c3)cc21 [Example 44, 6-(3-Fluorophenyl)-4,4-dimethyl-3,4-dihydroquinoline-2(1H)-thione] | 209 to 211 °C | 

Continued, in another order:

melting point | SMILES | also measured
116 to 118 °C | CC1Nc2ccc(-c3coc(C#N)c3)cc2C(C)(C)O1 (stereo not drawn) [Example 31, 4-(2,4,4-Trimethyl-1,4-dihydro-2H-3,1-benzoxazin-6-yl)2-furonitrile] | 
173 to 175 °C | CC1Nc2ccc(-c3ccc(F)c(Cl)c3)cc2C(C)(C)O1 (stereo not drawn) [Example 29, 6-(3-Chloro-4-fluorophenyl)-2,4,4-trimethyl-1,4-dihydro-2H-3,1-benzoxazine] | 
139 to 140 °C | CC1Nc2ccc(-c3cccc(F)c3)cc2C(C)(C)O1 (stereo not drawn) [Example 27, 6-(3-Fluorophenyl)-2,4,4-trimethyl-1,4-dihydro-2H-3,1-benzoxazine] | 
175 to 176 °C | CC1Nc2ccc(-c3csc(C#N)c3)cc2C(C)(C)O1 (stereo not drawn) [Example 15, 4-(2,4,4-Trimethyl-1,4-dihydro-2H-3,1-benzoxazin-6-yl)thiophene-2carbonitrile] | 
145 to 146 °C | Cc1cc(C#N)sc1-c1ccc2c(c1)C(C)(C)OC(C)N2 (stereo not drawn) [Example 16, 4Methyl-5-(2,4,4-trimethyl-1,4-dihydro-2H-3,1-benzoxazin-6-yl)thiophene-2-carbonitrile] | 
201 to 202 °C | CC1Nc2ccc(-c3ccc(C#N)[nH]3)cc2C(C)(C)O1 (stereo not drawn) [Example 20, 5-(2,4,4-Trimethyl-1,4-dihydro-2H-3,1-benzoxazin-6-yl)-1H-pyrrole-2-carbonitrile] | 
144 to 146 °C | CC1Nc2ccc(-c3cccc(Cl)c3)cc2C(C)(C)O1 (stereo not drawn) [Example 28, 6-(3-Chlorophenyl)-2,4,4-trimethyl-1,4-dihydro-2H-3,1-benzoxazine] | 
128 to 129 °C | C[C@@H]1Nc2ccc(-c3cc(F)cc(C#N)c3)cc2[C@](C)(c2ccccc2)O1 [Example 17, 3-[(2R,4S)-2,4-Dimethyl-4-phenyl-1,4-dihydro-2H-3,1-benzoxazin-6yl]-5-fluorobenzonitrile] | 
249 to 250 °C | CC1(C)CC(=O)Nc2ccc(-c3cc(F)cc(C#N)c3)cc21 [Example 41, 3-(4,4-Dimethyl-2-oxo-1,2,3,4-tetrahydroquinolin-6-yl)-5-fluorobenzonitrile] | 
184 to 186 °C | CC1Nc2ccc(-c3ccc(F)c(C#N)c3)cc2C(C)(C)O1 (stereo not drawn) [Example 30, 2-Fluoro-5-(2,4,4-trimethyl-1,4-dihydro-2H-3,1-benzoxazin-6-yl)benzonitrile] | 
108 to 109 °C | CC1(C)OC(C(F)(F)F)Nc2ccc(-c3cccc(Cl)c3)cc21 (stereo not drawn) [Example 39, 6-(3-Chlorophenyl)-4,4-dimethyl-2-(trifluoromethyl)-1,4-dihydro-2H-3,1-benzoxazine] | 
111 to 112 °C | CC1Nc2ccc(-c3csc(C#N)c3)cc2C2(CCCCC2)O1 (stereo not drawn) [Example 26, 4-(2-Methylspiro[2H-3,1-benzoxazine-4,1′-cyclohexane]-6-yl)2-thiophenecarbonitrile] | 
97 to 98 °C | Cc1cc(C#N)sc1-c1ccc2c(c1)C(C)(C)OC(C(F)(F)F)N2 (stereo not drawn) [Example 38, 5-[4,4-Dimethyl-2-(trifluoromethyl)-1,4-dihydro-2H-3,1-benzoxazin-6-yl]-4-methylthiophene-2-carbonitrile] | 
195 to 196 °C | CC1Nc2ccc(-c3ccc(C#N)n3C)cc2C(C)(C)O1 (stereo not drawn) [Example 22, 1-Methyl-5-(2,4,4-trimethyl-1,4-dihydro-2H-3,1-benzoxazin-6-yl)-1H-pyrrole-2-carbonitrile] | 
102 to 103 °C | CC1(C)OC(C(F)(F)F)Nc2ccc(-c3cc(F)cc(C#N)c3)cc21 (stereo not drawn) [Example 32, 3-[4,4-Dimethyl-2-(trifluoromethyl)-1,4-dihydro-2H-3,1-benzoxazin-6-yl]-5-fluorobenzonitrile] | 
163 to 164 °C | CC1Nc2ccc(-c3cc(F)cc(C#N)c3)cc2C(C)(C)O1 (stereo not drawn) [Example 14, 3-Fluoro-5-(2,4,4-trimethyl-1,4-dihydro-2H-3,1-benzoxazin-6-yl)benzonitrile] | 
